{"source": "patent US9790174B2", "about": "“Kinase inhibitors” (Respivert Limited, priority 2013, dated 2017)", "key": {"[1]": {"target": "B-Raf (Homo sapiens (Human), UniProt P15056)", "sequence (P15056 whole entry)": "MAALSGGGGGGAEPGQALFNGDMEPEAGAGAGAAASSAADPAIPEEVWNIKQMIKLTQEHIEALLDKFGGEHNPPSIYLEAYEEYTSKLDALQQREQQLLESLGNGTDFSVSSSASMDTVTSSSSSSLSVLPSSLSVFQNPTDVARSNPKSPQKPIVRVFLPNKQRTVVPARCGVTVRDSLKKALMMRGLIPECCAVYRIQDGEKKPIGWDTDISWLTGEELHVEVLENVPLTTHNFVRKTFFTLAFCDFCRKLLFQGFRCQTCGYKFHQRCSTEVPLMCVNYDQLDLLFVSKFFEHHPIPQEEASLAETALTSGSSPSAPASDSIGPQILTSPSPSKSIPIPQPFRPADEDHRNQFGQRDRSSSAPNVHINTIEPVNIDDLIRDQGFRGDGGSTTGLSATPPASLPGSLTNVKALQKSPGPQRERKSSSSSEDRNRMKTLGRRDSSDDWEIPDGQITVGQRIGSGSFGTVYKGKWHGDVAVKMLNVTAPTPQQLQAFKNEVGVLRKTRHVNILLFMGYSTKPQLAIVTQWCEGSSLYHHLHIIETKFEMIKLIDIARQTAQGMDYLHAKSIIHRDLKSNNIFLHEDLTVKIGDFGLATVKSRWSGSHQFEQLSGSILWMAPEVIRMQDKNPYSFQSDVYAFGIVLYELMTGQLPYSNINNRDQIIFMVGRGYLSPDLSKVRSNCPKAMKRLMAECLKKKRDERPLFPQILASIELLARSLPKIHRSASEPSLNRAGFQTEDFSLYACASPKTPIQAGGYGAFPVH", "assay": "KINOMEscan binding of kinase to standard ligand", "experimental": "(§1) Kinase enzyme binding activities of compounds disclosed herein may be determined using a proprietary assay which measures active site-directed competition binding to an immobilized ligand (Fabian, M. A. et al., Nature Biotechnol., 2005, 23:329-336). These assays may be conducted by DiscoverX (formerly Ambit; San Diego, Calif.). The percentage inhibition produced by incubation with a test compound may be calculated relative to the non-inhibited control."}, "[2]": {"target": "B-Raf (V600E) (Homo sapiens (Human), UniProt P15056, V600E)", "sequence (P15056 whole entry V600E)": "as the sequence (P15056 whole entry) above, with V600E counted along it", "assay": "KINOMEscan binding of kinase to standard ligand", "experimental": "as §1"}, "[3]": {"test_system": "non-mutant kinases", "assay": "KinomeScan selectivity scores", "type": "binding", "conditions": "for number of individual kinase hits S(1): % Ctrl <1; for number of individual kinase hits S(10): % Ctrl <10; for number of individual kinase hits S(35): % Ctrl <35; for selectivity compared to the Reference Compound: evidenced by lower selectivity scores", "experimental": "These assays may be conducted by DiscoverX (formerly Ambit; San Diego, Calif.). The percentage inhibition produced by incubation with a test compound may be calculated relative to the non-inhibited control."}, "[4]": {"test_system": "TNBS-induced colitis", "assay": "TNBS-induced colitis in mice", "type": "in vivo, BDF1 mice", "conditions": "conducted over 2 days; oral", "experimental": "Non-fasted, 10-12 week old, male BDF1 mice are dosed by oral gavage twice daily with either vehicle (5 mL/kg), reference item (Budesonide 2.5 mg/kg) or test compound (1 or 5 mg/kg) one day before (Day −1) stimulation of the inflammatory response by treatment with 2,4,6-trinitrobenzenesulphonic acid (TNBS) (15 mg/mL in 50% ethanol/50% saline). On Day 0 of the study TNBS (200 μL) is administered intra-colonically via a plastic catheter with BID dosing of the vehicle, reference or test compound continuing for 2 or 4 days. During the study, animals are weighed every day and stool observations are made and recorded as a score, based on stool consistency. At the time of sacrifice on Day 2 (or Day 4), the large intestine is removed and the length and weight recorded. Sections of the colon are taken for histopathology scoring to determine disease severity."}, "[5]": {"test_system": "adoptive transfer colitis", "assay": "Adoptive transfer in mice", "type": "in vivo, SCID mice", "conditions": "for % Inhibition: colon weight:length, induction window between naïve and vehicle animals", "experimental": "On Study day 0, female Balb/C mice are terminated and spleens obtained for CD45RB^high cell isolation (Using SCID IBD cell Separation protocol). Approximately 4×10^5 cells/mL CD45RB^high cells are then injected intraperitoneally (100 μL/mouse) into female SCID animals. On study day 14, mice are weighed and randomized into treatment groups based on body weight. On Day 14, compounds are administered BID, via oral gavage, in a peanut oil vehicle at the dose levels outlined below in Tables 6a and 6b and a dose volume of 5 mL/kg. Treatment continues until study day 42, at which point the animals are necropsied 4 hours after the morning administration. The colon length and weight are recorded and used as a secondary endpoint in the study as a measurement of colon oedema. The colon is then divided into six cross-sections, four of which are used for histopathology scoring (primary endpoint) and two are homogenised for cytokine analysis. Data shown is the % inhibition of the induction window between nave animals and vehicle animals, where higher inhibition implies closer to the non-diseased, nave, phenotype."}, "[6]": {"test_system": "intestinal mucosa biopsies from ulcerative colitis patients", "assay": "Human biopsy assay (cytokine release from intestinal mucosa biopsies)", "type": "cell-based", "conditions": "1 μg/mL, 24 hours", "experimental": "Intestinal mucosa biopsies are obtained from the inflamed regions of the colons of IBD patients. The biopsy material is cut into small pieces (2-3 mm) and placed on steel grids in an organ culture chamber at 37° C. in a 5% CO2/95% O2 atmosphere in serum-free media. DMSO control or test compounds at the desired concentration are added to the tissue and incubated for 24 hr in the organ culture chamber. The supernatant is harvested for determination of IL-6, IL-8, IL-1β and TNFα levels by R&D ELISA."}, "[7]": {"test_system": "endotoxin-induced uveitis", "assay": "Endotoxin-induced uveitis in rats", "type": "in vivo, Lewis rats", "conditions": "rats treated with intravitreal endotoxin LPS", "experimental": "Male, Lewis rats (6-8 weeks old, Charles River UK Limited) are housed in cages of 3 at 19-21° C. with a 12 h light/dark cycle (07:00/19:00) and fed a standard diet of rodent chow and water ad libitum. Non-fasted rats are weighed, individually identified on the tail with a permanent marker, and receive a single intravitreal administration into the right vitreous humor (5 μL dose volume) of 100 ng/animal of LPS (Escherichia coli 0111:B4 prepared in PBS, Sigma Aldrich, UK) using a 32-gauge needle. Untreated rats are injected with PBS. […] Following euthanasia, the right eye of each animal is enucleated and dissected into front (anterior) and back (posterior) sections around the lens. Each section is weighed and homogenised in 500 μL of sterile phosphate buffered saline followed by 20 minutes centrifugation at 12000 rpm at 4° C."}, "[8]": {"test_system": "Salmonella typhimurium, strains TA98 and TA100", "assay": "Mutagenicity assessment (bacterial reverse mutation screen)", "type": "cell-based", "conditions": "TA98 and TA100, presence or absence of S-9 mix", "experimental": "Studies were conducted by Sequani (Ledbury, Herefordshire, UK) to assess compounds of the invention for their ability to induce mutations in two histidine dependent auxotrophic mutants of Salmonella typhimurium, strains TA98 and TA100 in vitro.\nThe mutation screen was conducted using the plate incorporation method and was performed in both the presence and absence of S-9 mix (a liver post-mitochondrial fraction derived from the livers of Aroclor 1254 treated rats). The bacteria were exposed to test compounds dissolved in dimethylsulphoxide, which solvent was also used as the negative control. The dose levels used were 0.32, 1.6, 8, 40, 200, 1000 or 5000 μg/plate."}}}
{"smiles": "COCCOCCOCCNC(=O)c1cc(Nc2cc(Oc3ccc(NC(=O)Nc4cc(C(C)(C)C)cc(NS(C)(=O)=O)c4OC)c4ccccc34)ccn2)cc(OC)c1", "note": "[Example 3, 3-((4-((4-(3-(5-(tert-Butyl)-2-methoxy-3-(methylsulfonamido)phenyl)ureido)naphthalen-1-yl)oxy)pyridin-2-yl)amino)-5-methoxy-N-(2-(2-(2-methoxyethoxy)ethoxy)ethyl)benzamide]", "values": [{"measurement": "effect on the binding of B-Raf to its standard ligand", "setting": "[1]", "result": "did not have any significant effect"}, {"measurement": "effect on the binding of B-Raf (V600E) to its standard ligand", "setting": "[2]", "result": "did not have any significant effect"}, {"measurement": "number of individual kinase hits S(1)", "setting": "[3]; 50 nM", "result": 0}, {"measurement": "number of individual kinase hits S(10)", "setting": "[3]; 50 nM", "result": 9}, {"measurement": "number of individual kinase hits S(35)", "setting": "[3]; 50 nM", "result": 36}, {"measurement": "number of individual kinase hits S(1)", "setting": "[3]; 500 nM", "result": 18}, {"measurement": "number of individual kinase hits S(10)", "setting": "[3]; 500 nM", "result": 59}, {"measurement": "number of individual kinase hits S(35)", "setting": "[3]; 500 nM", "result": 93}, {"measurement": "selectivity compared to the Reference Compound", "setting": "[3]", "result": "substantially improved selectivities"}, {"measurement": "activity in TNBS model of colonic inflammation (histopathology analysis)", "setting": "[4]", "result": "displayed substantial activity"}, {"measurement": "activity in T cell driven model of colonic inflammation (ratios of colon weight to length)", "setting": "[5]; adoptive transfer", "result": "displayed significant activity"}]}
{"smiles": "COCCOCCOCCOc1cc(Nc2nccc(Oc3ccc(NC(=O)Nc4cc(C(C)(C)C)cc(NS(C)(=O)=O)c4OC)c4ccccc34)n2)cc(OC)c1", "note": "[Example 4, N-(5-(tert-Butyl)-2-methoxy-3-(3-(4-((2-((3-methoxy-5-(2-(2-(2-methoxyethoxy)ethoxy)-ethoxy)phenyl)amino)pyrimidin-4-yl)oxy)naphthalen-1-yl)ureido)phenyl)methanesulfonamide]", "values": [{"measurement": "effect on the binding of B-Raf to its standard ligand", "setting": "[1]", "result": "did not have any significant effect"}, {"measurement": "effect on the binding of B-Raf (V600E) to its standard ligand", "setting": "[2]", "result": "did not have any significant effect"}, {"measurement": "cytokine (IL-1β, IL-6 and IL-8) release compared to the DMSO control", "setting": "[6]", "result": "significantly inhibited"}, {"measurement": "activity in TNBS model of colonic inflammation (histopathology analysis)", "setting": "[4]", "result": "displayed substantial activity"}, {"measurement": "% Inhibition", "setting": "[5]; 0.3 mg/kg BID oral gavage", "result": 62, "unit": "%"}, {"measurement": "% Inhibition", "setting": "[5]; 1 mg/kg BID oral gavage", "result": 110, "unit": "%"}, {"measurement": "levels of pro-inflammatory cytokines in samples of colon tissue", "setting": "[5]; adoptive transfer model", "result": "significantly reduced levels of pro-inflammatory cytokines"}, {"measurement": "cytokine levels in anterior and posterior segments of the eyes", "setting": "[7]", "result": "significantly reduced cytokine levels"}, {"measurement": "increases in revertant colonies", "setting": "[8]", "result": "no dose-related or statistically significant increases in revertant colonies"}]}
{"smiles": "CNC(=O)c1cc(C(C)(C)C)cc(NC(=O)Nc2ccc(Oc3ccnc(Nc4cc(OC)cc(OCCOCCOCCOC)c4)c3)c3ccccc23)c1OC", "note": "[Example 29, 5-(tert-Butyl)-2-methoxy-3-(3-(4-((2-((3-methoxy-5-(2-(2-(2-methoxyethoxy)ethoxy)-ethoxy)phenyl)amino)pyridin-4-yl)oxy)naphthalen-1-yl)ureido)-N-methylbenzamide]", "values": [{"measurement": "cytokine levels in anterior and posterior segments of the eyes", "setting": "[7]", "result": "significantly reduced cytokine levels"}]}
{"smiles": "COCCOCCOCCOc1cc(Nc2cc(Oc3ccc(NC(=O)Nc4cc(C(C)(C)C)cc(C(N)=O)c4OC)c4ccccc34)ccn2)cc(OC)c1", "note": "[Example 34, 5-(tert-Butyl)-2-methoxy-3-(3-(4-((2-((3-methoxy-5-(2-(2-(2-methoxyethoxy)ethoxy)ethoxy)phenyl)amino)pyridin-4-yl)oxy)naphthalen-1-yl)ureido)benzamide]", "values": [{"measurement": "activity in TNBS model of colonic inflammation (histopathology analysis)", "setting": "[4]", "result": "displayed substantial activity"}]}
{"smiles": "COc1cc(Nc2cc(Oc3ccc(NC(=O)Nc4cc(C(C)(C)C)cc(NS(C)(=O)=O)c4OC)c4ccccc34)ccn2)cc(C(=O)NCCCN2CCOCC2)c1", "note": "[Example 66, 3-((4-((4-(3-(5-(tert-Butyl)-2-methoxy-3-(methylsulfonamido)phenyl)ureido)naphthalen-1-yl)oxy)pyridin-2-yl)amino)-5-methoxy-N-(3-morpholinopropyl)benzamide]", "values": [{"measurement": "cytokine levels in anterior and posterior segments of the eyes", "setting": "[7]", "result": "significantly reduced cytokine levels"}]}
{"smiles": "COc1c(NC(=O)Nc2ccc(Oc3ccnc(Nc4ccccc4)c3)c3ccccc23)cc(C(C)(C)C)cc1C(=O)NC1COC1", "note": "[Example 75, 5-(tert-Butyl)-2-methoxy-N-(oxetan-3-yl)-3-(3-(4-((2-(phenylamino)pyridin-4-yl)oxy)-naphthalen-1-yl)ureido)benzamide]", "values": [{"measurement": "effect on the binding of B-Raf to its standard ligand", "setting": "[1]", "result": "did not have any significant effect"}, {"measurement": "effect on the binding of B-Raf (V600E) to its standard ligand", "setting": "[2]", "result": "did not have any significant effect"}, {"measurement": "number of individual kinase hits S(1)", "setting": "[3]; 50 nM", "result": 2}, {"measurement": "number of individual kinase hits S(10)", "setting": "[3]; 50 nM", "result": 14}, {"measurement": "number of individual kinase hits S(35)", "setting": "[3]; 50 nM", "result": 39}, {"measurement": "number of individual kinase hits S(1)", "setting": "[3]; 500 nM", "result": 15}, {"measurement": "number of individual kinase hits S(10)", "setting": "[3]; 500 nM", "result": 55}, {"measurement": "number of individual kinase hits S(35)", "setting": "[3]; 500 nM", "result": 91}, {"measurement": "selectivity compared to the Reference Compound", "setting": "[3]", "result": "substantially improved selectivities"}, {"measurement": "activity in TNBS model of colonic inflammation (histopathology analysis)", "setting": "[4]", "result": "displayed substantial activity"}, {"measurement": "cytokine levels in anterior and posterior segments of the eyes", "setting": "[7]", "result": "significantly reduced cytokine levels"}, {"measurement": "increases in revertant colonies", "setting": "[8]", "result": "no dose-related or statistically significant increases in revertant colonies"}]}
{"smiles": "COc1cc(Nc2cc(Oc3ccc(NC(=O)Nc4cc(C(C)(C)C)cc(NS(C)(=O)=O)c4OC)c4ccccc34)ccn2)cc(C(=O)NCCN2CCN(C)CC2)c1", "note": "[Example 79, 3-((4-((4-(3-(5-(tert-Butyl)-2-methoxy-3-(methylsulfonamido)phenyl)ureido)naphthalen-1-yl)oxy)pyridin-2-yl)amino)-5-methoxy-N-(2-(4-methylpiperazin-1-yl)ethyl)benzamide]", "values": [{"measurement": "activity in TNBS model of colonic inflammation (histopathology analysis)", "setting": "[4]", "result": "displayed substantial activity"}]}
